The values that follow come from ChEMBL document CHEMBL5365467 (J Med Chem, 2023).

Active and inactive are the calls of the source. The calls are words filed in the database; no cut-off is given here.

Series [1] addresses Protein cereblon/Androgen receptor (Homo sapiens, UniProt P10275+Q96SW2). The series is described as follows: PROTAC activity at AR/CRBN in AR-positive human VCaP cells assessed as induction of androgen receptor degradation measured at 24 hrs. Format: cell-based.
The test system of series [2] is VCaP. The series is described as follows: Downregulation of PCLAF protein expression in human VCaP cells at 10 uM measured for 24 hrs by proteomics analysis. Format: functional, cell-based.
Series [3] concerns VCaP. Description: Downregulation of PLOD2 protein expression in human VCaP cells at 10 uM measured for 24 hrs by proteomics analysis. It is filed as functional, cell-based.
The test system of series [4] is VCaP. Description: Downregulation of HAUS8 protein expression in human VCaP cells at 10 uM measured for 24 hrs by proteomics analysis. It is filed as functional, cell-based.
Series [5] in a line: AUC (0 to t) in Sprague-Dawley rat at 3 mg/kg, po measured upto 24 hrs by LC-MS/MS analysis. It is filed as ADME, organism-based. The arrangement: dose 3 mg/kg, time < 24 hrs, route po. The note with it: in vivo.
Series [6] is described as follows: Volume of distribution at steady state in Sprague-Dawley rat at 1 mg/kg, iv measured upto 24 hrs by LC-MS/MS analysis. Format: ADME, organism-based. The note with it: in vivo, read-out: Vdss.
The nature of series [7]: AUC (0 to t) in Sprague-Dawley rat at 1 mg/kg, iv measured upto 24 hrs by LC-MS/MS analysis. Format: ADME, organism-based. Set-up: dose 1 mg/kg, time < 24 hrs, route iv. The note with it: in vivo.
In series [8] the target is T1, Androgen receptor (Homo sapiens, UniProt P10275).
T1 sequence (P10275 whole entry): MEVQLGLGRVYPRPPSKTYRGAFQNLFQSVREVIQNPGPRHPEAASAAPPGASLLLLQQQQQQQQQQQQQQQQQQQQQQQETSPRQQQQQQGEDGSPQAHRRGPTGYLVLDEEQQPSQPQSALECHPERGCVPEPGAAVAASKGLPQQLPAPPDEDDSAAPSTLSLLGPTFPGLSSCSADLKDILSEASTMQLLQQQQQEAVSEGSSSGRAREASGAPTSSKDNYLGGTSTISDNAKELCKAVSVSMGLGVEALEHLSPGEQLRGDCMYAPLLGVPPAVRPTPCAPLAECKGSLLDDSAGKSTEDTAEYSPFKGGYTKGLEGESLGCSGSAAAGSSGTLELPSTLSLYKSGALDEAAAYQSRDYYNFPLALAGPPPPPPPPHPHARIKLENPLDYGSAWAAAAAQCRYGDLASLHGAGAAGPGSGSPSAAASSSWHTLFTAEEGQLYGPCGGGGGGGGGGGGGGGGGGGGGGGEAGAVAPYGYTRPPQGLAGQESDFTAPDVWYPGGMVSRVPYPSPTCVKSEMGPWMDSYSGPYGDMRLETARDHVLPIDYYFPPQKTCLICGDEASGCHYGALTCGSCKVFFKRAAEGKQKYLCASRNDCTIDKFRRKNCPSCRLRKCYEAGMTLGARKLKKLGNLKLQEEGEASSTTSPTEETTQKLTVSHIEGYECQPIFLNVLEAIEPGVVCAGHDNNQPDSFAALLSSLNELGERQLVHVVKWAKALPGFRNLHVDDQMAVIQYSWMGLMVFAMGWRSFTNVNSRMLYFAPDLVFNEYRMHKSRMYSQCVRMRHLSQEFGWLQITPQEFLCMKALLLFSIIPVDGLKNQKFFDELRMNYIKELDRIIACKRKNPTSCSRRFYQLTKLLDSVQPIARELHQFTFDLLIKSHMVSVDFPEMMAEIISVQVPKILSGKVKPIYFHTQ

Series [9] in a line: Half life in Sprague-Dawley rat at 3 mg/kg, po measured upto 24 hrs by LC-MS/MS analysis. Format: ADME, organism-based. The note with it: in vivo.
Series [10] can be described thus: Cmax in Sprague-Dawley rat at 3 mg/kg, po measured upto 24 hrs by LC-MS/MS analysis. Format: ADME, organism-based. Set-up: dose 3 mg/kg, time < 24 hrs, route po. The note with it: in vivo.
Series [11] can be described thus: Oral bioavailability in Sprague-Dawley rat at 3 mg/kg measured upto 24 hrs by LC-MS/MS analysis. Conditions: in vivo. It is filed as ADME, organism-based.
The nature of series [12]: Half life in Sprague-Dawley rat at 1 mg/kg, iv measured upto 24 hrs by LC-MS/MS analysis. Conditions: in vivo. Format: ADME, organism-based.
A short description of series [13]: Clearance in Sprague-Dawley rat at 1 mg/kg, iv measured upto 24 hrs by LC-MS/MS analysis. Format: ADME, organism-based. The note with it: in vivo.
Series [14] deals with VCaP. Description: Growth inhibition in human VCaP cells.
Series [15] is described as follows: Half life in Sprague-Dawley rat at 5 mg/kg, po measured upto 24 hrs by LC-MS/MS analysis. The note with it: in vivo.
Series [16] concerns the target Protein cereblon/Androgen receptor (Homo sapiens, UniProt P10275+Q96SW2, T878A). Description: PROTAC activity at AR T878A mutant/CRBN in human LNCaP cells assessed as induction of androgen receptor degradation measured at 24 hrs by Western blot analysis. It is filed as cell-based.
The subject of series [17] is LNCaP. The series is described as follows: Growth inhibition in human LNCaP cells assessed as reduction in cell viability.
For series [18], the system named is VCaP. Description: Antitumor activity against human VCaP cells xenografted in CB17-SCID mouse assessed as tumor growth inhibition at 10 mg/kg, po administered for 21 days. The note with it: 504 h, time 21 day, read-out: TGI. It is filed as functional.

Protein cereblon/Androgen receptor (Homo sapiens, UniProt P10275+Q96SW2), sequence (Q96SW2 whole entry, one chain of several): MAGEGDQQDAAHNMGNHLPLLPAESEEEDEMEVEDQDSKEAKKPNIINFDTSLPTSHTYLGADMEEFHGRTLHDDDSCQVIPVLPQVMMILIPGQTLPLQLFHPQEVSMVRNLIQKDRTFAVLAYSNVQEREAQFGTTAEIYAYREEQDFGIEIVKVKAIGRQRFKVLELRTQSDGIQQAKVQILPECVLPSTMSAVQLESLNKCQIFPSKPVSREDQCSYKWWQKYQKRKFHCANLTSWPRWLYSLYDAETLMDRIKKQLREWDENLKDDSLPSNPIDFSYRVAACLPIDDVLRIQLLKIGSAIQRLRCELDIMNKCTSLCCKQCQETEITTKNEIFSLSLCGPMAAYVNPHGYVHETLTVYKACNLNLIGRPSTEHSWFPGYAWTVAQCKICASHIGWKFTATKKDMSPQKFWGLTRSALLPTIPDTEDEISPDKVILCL

Regarding `C[C@H]1CC2(CCN(c3ccc(C(=O)N4CCN(C)CC4)cc3)CC2)CN1c1ccc(C#N)c(Cl)c1`, the DC50 result in series [1] is reported as “Not Active”. The result in series [2], in [3] and in series [4] was inactive.
Take `CN(c1ccc(C#N)c(Cl)c1)[C@H]1CC[C@H](NC(=O)c2ccc(N3CCN(C4CN(c5ccc6c(c5)C(=O)N(C5CCC(=O)NC5=O)C6=O)C4)CC3)cc2)CC1` (stereo not given in full): the results for the AUC(0-t) at 24 h in series [5] and in [7] were 535 ng·h/mL and 1300 ng·h/mL, respectively. Besides, the Vd in series [6] was determined as 5.3 L/kg. Besides, in series [8], the IC50 turned out to be 15 nM. The half-life was 6.9 h in series [9] and 5.5 h in series [12]. The concentration in [10] peaked (Cmax) at 57 ng/mL. Besides, the bioavailability in series [11] is 13%. The compound further gave a clearance in series [13] of 12.5 mL/min/kg.
For the compound `C[C@H]1CC2(CCN(c3ccc(C(=O)N4CCC(CN5Cc6cc7c(cc6C5)C(=O)N(C5CCC(=O)NC5=O)C7=O)CC4)nn3)CC2)CN1c1ccc(C#N)c(Cl)c1` (stereo not given in full), the DC50 in series [1] (read-out: DC50) worked out at 2.7 nM; in series [16] it was 0.5 nM. In addition, the AUC(0-t) at 24 h amounted to 1100 ng·h/mL in series [5] and 1010 ng·h/mL in [7]. The compound further gave an IC50 in series [14] of 20 nM. Moreover, the Vd in series [6] came to 2.2 L/kg. The half-life at 24 h in series [15] is 1.4 h. Also, in series [10], the peak level (Cmax) was 247 ng/mL. In [11], the bioavailability was found to be 36%. The half-life in series [12] was 2 h. In series [13], this compound gave a clearance of 32.3 mL/min/kg.
Turning to `C[C@H]1CC2(CCN(c3cnc(C(=O)N4CCC(CN5Cc6cc7c(cc6C5)C(=O)N(C5CCC(=O)NC5=O)C7=O)CC4)cn3)CC2)CN1c1ccc(C#N)c(Cl)c1` (stereo not given in full), the AUC(0-t) at 24 h in [5] stood at 235 ng·h/mL; in [7], 495 ng·h/mL. In addition, half-maximal inhibition in series [14] (IC50) required 10 nM. Moreover, in [6], the Vd is 2.3 L/kg. Moreover, the results for the half-life in series [9] and in series [12] were 1.2 h and 1.4 h, respectively. This compound also yielded a Cmax in series [10] of 55 ng/mL. Also, in series [11], the bioavailability is 15%. The clearance in series [13] is 33.3 mL/min/kg.
As for `N#Cc1ccc(O[C@H]2CC[C@H](NC(=O)c3ccc(N4CCC(CN5CCN(c6cc7c(cc6F)C(=O)N(C6CCC(=O)NC6=O)C7=O)CC5)CC4)nn3)CC2)cc1Cl` (stereo not given in full) [BAVDEGALUTAMIDE], the AUC(0-t) at 24 h in series [5] turned out to be 3600 ng·h/mL; in series [7], 2270 ng·h/mL. In addition, the values for the IC50 in series [14] and in series [17] were 16.2 nM and 18.5 nM, respectively. Besides, the Vd in [6] came out at 4.6 L/kg. Besides, the half-life in series [9] is 27.1 h; in series [12], 12 h. Besides, the inhibition in vivo at 10 mg/kg in series [18] came to 47%. The compound also registered a Cmax in series [10] of 280 ng/mL. The bioavailability in [11] was determined as 52%. Also, the clearance in series [13] is 6 mL/min/kg.
With `CNC(=O)c1ccc(N2C(=S)N(c3ccc(C#N)c(C(F)(F)F)c3)C(=O)C2(C)C)cc1F` [ENZALUTAMIDE], the IC50 in series [17] came out at 213 nM.
